According to patent US20240327423A1, “A SERIES OF PYRROLE DERIVATIVES AND THEIR PREPARATION METHOD AND THERAPEUTIC USE” (SHENZHEN SUNGENING BIO-MEDICAL CO., LTD, priority 2020, published 2024):
Converted amounts (≈) assume the structure as drawn.

Each molecule was assayed on Aspergillus fumigatus (ATCC MYA-4609/AF293/CBS 101355) (assay: Measurement of minimum inhibitory concentration (MIC), AF293). Conditions: Aspergillus fumigatus AF293, 35° C., 48 hours, RPMI1640.
Assay type: cell-based
Procedure: New streaks are made with glycerol stock solution of the strains of Aspergillus fumigatus (ATCC MYA-4609/AF 293/CBS 101355) on Sabouraud's dextrose agar (SDA), incubate at 35° C. and a humidity of 40-70% for 72 hours. Other strains are processed as the same as AF293.
RPMI1640: one packet of RPMI1640 powder is dissolved in 1 L purified water and mixed well, add 0.165M MOPS, adjust the pH to 7.0, sterilize by filtration with 0.22 um membrane, and store at 4° C. for no more than 3 months.
Physiological saline: weigh 9 g of sodium chloride powder and dissolve in 1 L of purified water, and mixed well. Sterilize at 121° C. for 30 min, store at room temperature (RT) for no more than 1 week.
Dissolve the test compound and stock solution of one control compound with DMSO and obtain solutions at a concentration of 12.8 mg/mL
The maximum concentration of each compound is 0.8 mg/mL (e.g., 150 μL of dimethyl sulfoxide+10 uL of 12.8 mg/mL compound/control). Column 1 is filled with 40 μL of compound and columns 2 to 11 with 20 μL of dimethyl sulfoxide. Transfer 20 μL of compound from column 1 to column 2 to dilute the concentration. Repeat the above steps up to column 11 to give 2× serial dilutions.
2 μL of the above 2× serial dilutions are injected into each hole of the corresponding test plate using a multichannel pipette.
Drop 5 ml of saline on the Aspergillus fumigatus SDA plate. The spores were carefully wiped off from the surface of the plate with an L-shaped coating rod. Then the suspension is transferred into a sterile tube. After shaking, let the tube stand for 5 to 10 minutes. Count the number of spores in the upper suspension with a hemocytometer and check the purity. Adjust the inoculum concentration to 0.2-2.5×10^4 spores/mL.
Inject 198 μL of diluted inoculum into each holes of the corresponding test plate using a multichannel pipette.
Incubate at 35° C. for 48 hours.
To facilitate scoring of the presence or absence of growth on the wall, a magnifying glass is used. The tested 96-well microplates were photographed and the optical density at 530 nm is read with an enzyme marker (Tecan Spark).

`Cc1cc(-c2ccccc2)c(C(=O)C(=O)Nc2ccc3c(c2)CC2CCN(c4ncc(F)cn4)CCN32)n1C` (stereo not drawn) [2 (T-2-b), 2-(1,5-dimethyl-3-phenyl-1H-pyrrol-2-yl)-N-(3-(5-fluoropyrimidin-2-yl)-2,3,4,5,11,11a-hexahydro-1H-[1,4]diaza[1,7-a]indol-9-yl)-2-oxoacetamide] and `Cc1cc(-c2ccccc2)c(C(=O)C(=O)Nc2ccc3c(c2)CC2CN(c4ncc(F)cn4)CCCN32)n1C` (stereo not drawn) [2 (T-2-a), 2-(1,5-dimethyl-3-phenyl-1H-pyrrol-2-yl)-N-(2-(5-fluoropyrimidin-2-yl)-2,3,4,5,11,11a-hexahydro-1H-[1,4]diaza[1,2-a]indol-9-yl)-2-oxoacetamide] are the same in “AF293: MIC” value: 0.06 µg/mL for the first, 0.06 µg/mL for the second.

Compared with `Cc1cc(-c2ccccc2)c(C(=O)C(=O)Nc2ccc3c(c2)COCC2CN(c4ncc(F)cn4)CCN32)n1C` (stereo not drawn) [Example 18, 2-(1,5-dimethyl-3-phenyl-1H-pyrrol-2-yl)-N-(3-(5-fluoropyrimidin-2-yl)-1,2,3,4,4a,5-hexahydro-7H-benzo[e]pyrazino[2,1-c] [1,4]oxazolin-9-yl)-2-oxoacetamide], `Cc1cc(-c2ccccc2)c(C(=O)C(=O)Nc2ccc3c(c2)CN(C)CC2CN(c4ncc(F)cn4)CCN32)n1C` (stereo not drawn) [Example 31] is 33-fold higher in “AF293: MIC” value: 0.03 µg/mL for the first, 1 µg/mL for the second.

First: Cc1cc(-c2ccccc2)c(C(=O)C(=O)Nc2ccc3c(c2)OCC2CN(c4ncn(C)n4)CCN32)n1C (stereo not drawn) [Example 17]
Second: Cc1cc(-c2ccccc2)c(C(=O)C(=O)Nc2ccc3c(c2)OCC2CN(c4ncc(C#N)cn4)CCN32)n1C (stereo not drawn) [Example 7, N-(3-(5-cyanopyrimidin-2-yl)-1,2,3,4,4a,5-hexahydrobenzo[b]pyrazino[1,2-d] [1,4]oxazin-8-yl)-2-(1,5-dimethyl-3-phenyl-1H-pyrrol-2-yl)-2-oxyacetamide]
The “AF293: MIC” value of the first is 17-fold higher: 1 µg/mL for the first, 0.06 µg/mL for the second.

Same assay, conditions: Aspergillus fumigatus, CBS101355, 48 h, read-out: AF293: MIC, Aspergillus fumigatus AF293, 35° C., 48 hours, RPMI1640

`Cc1cc(-c2ccccc2)c(C(=O)C(=O)Nc2cc(F)c3c(c2)OC[C@H]2CN(c4ncc(F)cn4)CCN32)n1C` [Example 25, (R)-2-(1,5-dimethyl-3-phenyl-1H-pyrrol-2-yl)-N-(10-fluoro-3-(5-fluoropyrimidin-2-yl)-1,2,3,4,4a,5-hexahydrobenzo[b]pyrazino[1,2-d] [1,4]oxazin-8-yl)-2-oxoacetamide] was tested, and the MIC was 0.06 µg/mL (≈ 0.11 µM).

Same assay, conditions: CBS101355; Aspergillus fumigatus AF293, 35° C., 48 hours, RPMI1640; read-out: AF293: MIC

Going from `Cc1cc(-c2ccccc2)c(C(=O)C(=O)Nc2ccc3c(c2)OCC2CN(c4ccc(F)nn4)CCN32)n1C` (stereo not drawn) [Example 13] to `Cc1cc(-c2ccccc2)c(C(=O)C(=O)Nc2ccc3c(c2)OCC2CN(c4ccc(F)cn4)CCN32)n1C` (stereo not drawn) [Example 14], the MIC falls from 0.25 µg/mL (≈ 0.475 µM) to 0.06 µg/mL (≈ 0.114 µM) (4.2-fold).

`Cc1cc(-c2ccccc2)c(C(=O)C(=O)Nc2ccc3c(c2)COC[C@H]2CN(c4ncc(F)cn4)CCN32)n1C` [Example 26] and `Cc1cc(-c2ccccc2)c(C(=O)C(=O)Nc2ccc3c(c2)COC[C@@H]2CN(c4ncc(F)cn4)CCN32)n1C` [Example 27] are the same in MIC: 0.03 µg/mL (≈ 0.0555 µM) for the first, 0.03 µg/mL (≈ 0.0555 µM) for the second.

`Cc1cc(-c2ccc(F)cc2)c(C(=O)C(=O)Nc2ccc3c(c2)OC[C@H]2CN(c4ncc(F)cn4)CCN32)n1C` [Example 37, (R)-2-(3-(4-fluorophenyl)-1,5-dimethyl-1H-pyrrol-2-yl)-N-(3-(5-fluoropyrimidin-2-yl)-1,2,3,4,4a,5-hexahydrobenzo[b]pyrazino[1,2-d] [1,4]oxazin-8-yl)-2-oxoacetamide] and `Cc1cc(-c2cccc(F)c2)c(C(=O)C(=O)Nc2ccc3c(c2)OC[C@H]2CN(c4ncc(F)cn4)CCN32)n1C` [Example 36, (R)-2-(3-(3-fluorophenyl)-1,5-dimethyl-1H-pyrrol-2-yl)-N-(3-(5-fluoropyrimidin-2-yl)-1,2,3,4,4a,5-hexahydrobenzo[b]pyrazino[1,2-d] [1,4]oxazin-8-yl)-2-oxoacetamide] are the same in MIC: 0.016 µg/mL (≈ 0.0294 µM) for the first, 0.016 µg/mL (≈ 0.0294 µM) for the second.

`Cc1cc(-c2ccccc2)c(C(=O)C(=O)Nc2ccc3c(c2)OC[C@H]2CN(c4ncc(N5CCC5)cn4)CCN32)n1C` [Example 23, (R)—N-(3-(5-(azetidin-1-yl)pyrimidin-2-yl)-1,2,3,4,4a,5-hexahydrobenzo[b]pyrazino[1,2-d] [1,4]oxazin-8-yl)-2-(1,5-dimethyl-3-phenyl-1H-pyrrol-2-yl)-2-oxoacetamide] and `Cc1cc(-c2ccccc2)c(C(=O)C(=O)Nc2ccc3c(c2)OC[C@H]2CN(c4ncc(N5CCOCC5)cn4)CCN32)n1C` [Example 24, (R)-2-(1,5-dimethyl-3-phenyl-1H-pyrrol-2-yl)-N-(3-(5-morpholinopyrimidin-2-yl)-1,2,3,4,4a,5-hexahydrobenzo[b]pyrazino[1,2-d] [1,4]oxazin-8-yl)-2-oxoacetamide] are the same in MIC: 0.13 µg/mL (≈ 0.231 µM) for the first, 0.13 µg/mL (≈ 0.219 µM) for the second.

Compared with `Cc1cc(-c2ccccc2)c(C(=O)C(=O)Nc2ccc3c(c2)OC[C@H]2CN(c4ncncn4)CCN32)n1C` [Example 28, (R)—N-(3-(1,3,5-triazin-2-yl)-1,2,3,4,4a,5-hexahydrobenzo[b]pyrazino[1,2-d] [1,4]oxazin-8-yl)-2-(1,5-dimethyl-3-phenyl-1H-pyrrol-2-yl)-2-oxoacetamide], `COc1cnc(N2CCN3c4ccc(NC(=O)C(=O)c5c(-c6ccccc6)cc(C)n5C)cc4OCC3C2)nc1` (stereo not drawn) [Example 8] is 8.3-fold lower in MIC: 0.25 µg/mL (≈ 0.491 µM) for the first, 0.03 µg/mL (≈ 0.0557 µM) for the second.

First: Cc1cc(-c2ccccc2)c(C(=O)C(=O)Nc2ccc3c(c2)OCC2CN(c4ncc(C#N)s4)CCN32)n1C (stereo not drawn) [Example 12]
Second: Cc1cc(-c2ccccc2)c(C(=O)C(=O)Nc2ccc3c(c2)OCC2CN(c4ccnc(Cl)n4)CCN32)n1C (stereo not drawn) [Example 11]
The MIC of the first is 3.8-fold lower: 0.13 µg/mL (≈ 0.241 µM) for the first, 0.5 µg/mL (≈ 0.921 µM) for the second.

Compared with `Cc1cc(-c2ccccc2)c(C(=O)C(=O)Nc2cnc3c(c2)OCC2CN(c4ncc(F)cn4)CCN32)n1C` (stereo not drawn) [Example 22, 2-(1,5-dimethyl-3-phenyl-1H-pyrrol-2-yl)-N-(8-(5-fluoropyrimidin-2-yl)-6,6a,7,8,9,10-hexahydropyrazino[1,2-d]pyrido[3,2-b] [1,4]oxazin-3-yl)-2-oxoacetamide], `Cc1cc(-c2ccccc2)c(C(=O)C(=O)Nc2ccc3c(c2)OCC2CN(c4nccc(Cl)n4)CCN32)n1C` (stereo not drawn) [Example 10] is 2.2-fold lower in MIC: 0.13 µg/mL (≈ 0.246 µM) for the first, 0.06 µg/mL (≈ 0.11 µM) for the second.
